{"source": "paper PMC11926880", "about": "“Procognitive Potential of Neuroprotective Triazine 5-HT6 Receptor Antagonists Tested on Chronic Activity In Vivo in Rats: Computer-Aided Insight into the Role of Chalcogen-Differences on the Pharmacological Profile” (ACS Chemical Neuroscience, 2025)", "assay": "tissue distribution pharmacokinetics after single i.p. administration", "format": "in vivo, rat", "parameters": "Cmax: unit: ng/g", "protocol": "Standard laboratory food (LSM-B) and filtered water as well as environment enrichment were freely available. Animals were randomly divided into treatment groups using a computer-based random order generator. All of the experiments were performed by two observers unaware of the treatment applied between 9:00 and 14:00 on separate groups of animals. Rats were injected with the investigated compounds once (in pharmacokinetic studies) and for 21 days (in behavioral studies), and afterward, behavioral tests were conducted and tissue collection was done, as required. For pharmacokinetic studies, animals were fasted prior to dosing by withholding food but not water overnight. After dosing, the food was withheld for an additional 8 h. All animals were used only once. Animals were handled every day and weighed every other day in the chronic part of the experiment. Procedures involving animals and their care were conducted in accordance with current European Community and Polish legislations on animal experimentation. Additionally, all efforts were made to minimize animals' suffering and to use only the number of animals necessary to produce reliable scientific data. The experimental protocols and procedures described were approved by the I Local Ethics Commission in Cracow (nos 309/2019 and 765/2023) and complied with the European Communities Council Directive of 24 November 24, 1986 (86/609/EEC) and were in accordance with the 1996 NIH Guide for the Care and Use of Laboratory Animals. The research program complies with the commonly accepted '3Rs' (replacement and reduction of animals, refinement of experimental conditions, and procedures to minimize the harm to animals). […] Moreover, five tissues (i.e., brain, heart, lungs, kidneys, and liver) were harvested and rinsed with cold saline. Blood was allowed to clot at room temperature for 15-20 min and then centrifuged (3000 rpm for 10 min). The obtained serum and tissues were stored at -80 °C until analysis. […] HPLC analysis with UV detection at 221 nm was performed at a 1 mL/min flow rate, and the column temperature was 38 °C. Before analysis, tissue samples were thawed, weighed (200-250 mg), and placed in 5 mL plastic tubes with four volumes (w/v) of PBS (pH 7.4) and homogenized individually using a […]-1 homogenizer (ART Prozess & Labortechnik GmbH & Co., Germany). […] The samples were alkalized with 50 μL of 4 M sodium hydroxide solution, vortex-mixed, and extracted with 1 mL of ethyl acetate/hexane (30/70, v/v) mixture on a shaker (VXR Vibrax, IKA, Germany) for 20 min. […] Then, the samples were shaken and centrifuged again. Finally, 60-90 μL of each acidic layer was injected into the HPLC system. […] The interday and intraday precision and accuracy of quality control samples evaluated in the serum and tissue homogenates were within 15%. […] The area under the serum concentration-time curve from time zero to time t (AUC0-t), where t is the time of the last measurable sample, was calculated according to the linear trapezoidal rule. The AUC from time zero to infinity (AUC0-∞) was estimated as AUC0-t + Ct/λz, where Ct was the serum concentration of the last measurable sample. The clearance (CL/F) was calculated as D/AUC0-∞, and the volume of distribution based on the terminal phase (Vz/F) was estimated as D/(λz·AUC0-∞), where F is the bioavailability of intraperitoneal administration. The MRT is calculated to be […], where AMUC0-∞ is the area under the first moment curve from the time of dosing to infinity. The peak serum concentration (Cmax) and the time to reach Cmax (Tmax) were read directly from the observations. […] Data were presented as mean ± SD.", "note": "Values joined by “and” are separate entries in the source; they are usually repeats but may differ in a detail not shown here. Equal values may be shown once. Read-outs that look alike come from different tables or passages of the source."}
{"smiles": "CN1CCN(c2nc(N)nc(C(C)(C)Sc3ccc4ccccc4c3)n2)CC1", "note": "[WA-22, 4-(4-methylpiperazin-1-yl)-6-(2-(naphthalen-2-ylthio)propan-2-yl)-1,3,5-triazin-2-amine]", "values": [{"measurement": "time after administration at which still detected in all analyzed rat organs", "setting": "1 mg/kg i.p.", "value": 240, "unit": "min"}, {"measurement": "AUC0–t", "setting": "brain, 0.3 mg/kg i.p.", "value": "1575.82 ± 182.54", "unit": "ng·min/g"}, {"measurement": "t0.5λz", "setting": "brain, 0.3 mg/kg i.p.", "value": "48.35 ± 4.46", "unit": "min"}, {"measurement": "Tmax", "setting": "brain, 0.3 mg/kg i.p., 0.3 mg/kg", "value": "11.67 ± 5.77", "unit": "min"}, {"measurement": "Cmax", "setting": "brain, 1.0 mg/kg i.p., 1 mg/kg", "value": "114.79 ± 39.16", "unit": "ng/g"}, {"measurement": "Tmax", "setting": "brain, 1.0 mg/kg i.p., 1 mg/kg", "value": "8.33 ± 5.77", "unit": "min"}, {"measurement": "t0.5λz", "setting": "brain, 1.0 mg/kg i.p., 1 mg/kg", "value": "110.31 min and 110.31 ± 24.35 min"}, {"measurement": "AUC0–t", "setting": "heart, 0.3 mg/kg i.p.", "value": "1670.68 ± 385.10", "unit": "ng·min/g"}, {"measurement": "t0.5λz", "setting": "heart, 0.3 mg/kg i.p.", "value": "84.99 ± 19.47", "unit": "min"}, {"measurement": "AUC0–t", "setting": "heart, 1.0 mg/kg i.p.", "value": "6013.14 ± 2336.18", "unit": "ng·min/g"}, {"measurement": "t0.5λz", "setting": "heart, 1.0 mg/kg i.p.", "value": "122.04 ± 18.30", "unit": "min"}, {"measurement": "fraction cleared in rat tissues and serum at 120 min", "setting": "i.p. administration", "value": "80–95%"}, {"measurement": "AUC0–t", "setting": "kidneys, 0.3 mg/kg i.p.", "value": "3276.54 ± 1455.54", "unit": "ng·min/g"}, {"measurement": "t0.5λz", "setting": "kidneys, 0.3 mg/kg i.p.", "value": "67.32 ± 12.95", "unit": "min"}, {"measurement": "AUC0–t", "setting": "kidneys, 1.0 mg/kg i.p.", "value": "12540.07 ± 4826.76", "unit": "ng·min/g"}, {"measurement": "t0.5λz", "setting": "kidneys, 1.0 mg/kg i.p., 1 mg/kg", "value": "122 min and 121.93 ± 44.52 min"}, {"measurement": "AUC0–t", "setting": "liver, 0.3 mg/kg i.p.", "value": "3993.81 ± 1308.63", "unit": "ng·min/g"}, {"measurement": "t0.5λz", "setting": "liver, 0.3 mg/kg i.p.", "value": "48.07 ± 6.68", "unit": "min"}, {"measurement": "AUC0–t", "setting": "liver, 1.0 mg/kg i.p.", "value": "14056.00 ± 8075.06", "unit": "ng·min/g"}, {"measurement": "t0.5λz", "setting": "liver, 1.0 mg/kg i.p., 1 mg/kg", "value": "109 min and 108.96 ± 17.84 min"}, {"measurement": "AUC0–t", "setting": "lungs, 0.3 mg/kg i.p.", "value": "9320.95 ± 1906.43", "unit": "ng·min/g"}, {"measurement": "t0.5λz", "setting": "lungs, 0.3 mg/kg i.p.", "value": "105.43 ± 5.42", "unit": "min"}, {"measurement": "AUC0–t", "setting": "lungs, 1.0 mg/kg i.p.", "value": "33528.62 ± 5691.73", "unit": "ng·min/g"}, {"measurement": "t0.5λz", "setting": "lungs, 1.0 mg/kg i.p.", "value": "96.48 ± 13.43", "unit": "min"}, {"measurement": "Kp", "setting": "male, Wistar, rat, brain (relative to serum), ip, i.p. administration, read-out: brain-to-serum AUC ratio", "value": "~2.17"}, {"measurement": "Cmax", "setting": "male, Wistar, rat, brain, ip, 0.3 mg/kg, brain, 0.3 mg/kg i.p., read-out: Cmax", "value": "30.7 ± 3.28", "unit": "ng/g"}, {"measurement": "Tmax", "setting": "male, Wistar, rat, brain, ip, 0.3 mg/kg, brain, 0.3 mg/kg i.p., read-out: Tmax (converted)", "value": 12, "unit": "min"}, {"measurement": "Cmax", "setting": "male, Wistar, rat, brain, ip, 1 mg/kg, brain, 1.0 mg/kg i.p., read-out: Cmax", "value": "115 ± 39.2", "unit": "ng/g"}, {"measurement": "Tmax", "setting": "male, Wistar, rat, brain, ip, 1 mg/kg, brain, 1.0 mg/kg i.p., read-out: Tmax (converted)", "value": 8, "unit": "min"}, {"measurement": "Kp", "setting": "male, Wistar, rat, brain/serum, ip, 0.3 mg/kg, brain, 0.3 mg/kg i.p., read-out: AUC ratio (tissue-to-serum AUC0–t)", "value": "1.89 ± 0.34"}, {"measurement": "Kp", "setting": "male, Wistar, rat, brain/serum, ip, 1 mg/kg, brain, 1.0 mg/kg i.p., read-out: AUC ratio (tissue-to-serum AUC0–t)", "value": "2.46 ± 1.32"}, {"measurement": "Kp", "setting": "male, Wistar, rat, brain/serum, ip, 1 mg/kg, brain-to-serum, 1 mg/kg i.p., read-out: AUC0–∞ (ng·h/g)/AUC0–∞ (ng·h/mL)", "value": "2.14 ± 1.18"}, {"measurement": "Kp", "setting": "male, Wistar, rat, brain/serum, ip, 1 mg/kg, brain-to-serum, 1 mg/kg i.p., read-out: Cmax (ng/g)/Cmax (ng/mL)", "value": "1.99 ± 1.61"}, {"measurement": "Cmax", "setting": "male, Wistar, rat, heart, ip, 0.3 mg/kg, heart, 0.3 mg/kg i.p., read-out: Cmax", "value": "37.5 ± 6.65", "unit": "ng/g"}, {"measurement": "Tmax", "setting": "male, Wistar, rat, heart, ip, 0.3 mg/kg, heart, 0.3 mg/kg i.p., read-out: Tmax (converted)", "value": 5, "unit": "min"}, {"measurement": "Cmax", "setting": "male, Wistar, rat, heart, ip, 1 mg/kg, heart, 1.0 mg/kg i.p., read-out: Cmax", "value": "172 ± 74.7", "unit": "ng/g"}, {"measurement": "Tmax", "setting": "male, Wistar, rat, heart, ip, 1 mg/kg, heart, 1.0 mg/kg i.p., read-out: Tmax (converted)", "value": 5, "unit": "min"}, {"measurement": "Kp", "setting": "male, Wistar, rat, heart/serum, ip, 0.3 mg/kg, heart, 0.3 mg/kg i.p., read-out: AUC ratio (tissue-to-serum AUC0–t)", "value": "2 ± 0.52"}]}
